Drawing on PubChem BioAssay AID1259407 (Chemical Carcinogenesis Research Information System (CCRIS), 2018), this text covers mutagenic call for 4 compounds.

Active and inactive are the calls of the source. The rule behind the calls is not given here.

The data set concerns CCRIS mutagenicity, Ames/micronucleus/aberration tests. Briefly: CCRIS mutagenicity studies.
Setting [1] is: Test System: AMES SALMONELLA TYPHIMURIUM, Strain/Indicator: TA98(NR), Metabolic Activation: NONE, Method: PREINCUBATION
Setting [2] is: Test System: AMES SALMONELLA TYPHIMURIUM, Strain/Indicator: TA98, Metabolic Activation: NONE, Method: PREINCUBATION

As to `Nc1ncnc2nc(-c3ccc([N+](=O)[O-])cc3)[nH]c12`, the mutagenic call reads like this: (Test System: AMES SALMONELLA TYPHIMURIUM, Strain/Indicator: TA98(1,8-DNP), Metabolic Activation: NONE, Method: PREINCUBATION) “active; positive”; (Test System: AMES SALMONELLA TYPHIMURIUM, Strain/Indicator: TA98(1,8-DNP), Metabolic Activation: RAT, LIVER, S-9, PCB, Method: PREINCUBATION) “active; positive”; under setting [1], “active; positive”; (Test System: AMES SALMONELLA TYPHIMURIUM, Strain/Indicator: TA98(NR), Metabolic Activation: RAT, LIVER, S-9, PCB, Method: PREINCUBATION) “active; positive”; under setting [2], “active; positive”; (Test System: AMES SALMONELLA TYPHIMURIUM, Strain/Indicator: TA98, Metabolic Activation: RAT, LIVER, S-9, PCB, Method: PREINCUBATION) “active; positive”. The mutagenic call is “inactive; negative” (Test System: AMES SALMONELLA TYPHIMURIUM, Strain/Indicator: TA100(1,8-DNP), Metabolic Activation: RAT, LIVER, S-9, PCB, Method: PREINCUBATION); “inactive; negative” (Test System: AMES SALMONELLA TYPHIMURIUM, Strain/Indicator: TA100(NR), Metabolic Activation: NONE, Method: PREINCUBATION); “inactive; negative” (Test System: AMES SALMONELLA TYPHIMURIUM, Strain/Indicator: TA100(NR), Metabolic Activation: RAT, LIVER, S-9, PCB, Method: PREINCUBATION); “active; positive” (Test System: AMES SALMONELLA TYPHIMURIUM, Strain/Indicator: TA100, Metabolic Activation: NONE, Method: PREINCUBATION); “active; positive” (Test System: AMES SALMONELLA TYPHIMURIUM, Strain/Indicator: TA100, Metabolic Activation: RAT, LIVER, S-9, PCB, Method: PREINCUBATION); “active; positive” (Test System: AMES SALMONELLA TYPHIMURIUM, Strain/Indicator: YG1020, Metabolic Activation: NONE, Method: PREINCUBATION). Also, the mutagenic call reads like this: (Test System: AMES SALMONELLA TYPHIMURIUM, Strain/Indicator: YG1020, Metabolic Activation: RAT, LIVER, S-9, PCB, Method: PREINCUBATION) “active; positive”; (Test System: AMES SALMONELLA TYPHIMURIUM, Strain/Indicator: YG1021, Metabolic Activation: NONE, Method: PREINCUBATION) “active; positive”; (Test System: AMES SALMONELLA TYPHIMURIUM, Strain/Indicator: YG1021, Metabolic Activation: RAT, LIVER, S-9, PCB, Method: PREINCUBATION) “active; positive”; (Test System: AMES SALMONELLA TYPHIMURIUM, Strain/Indicator: YG1024, Metabolic Activation: NONE, Method: PREINCUBATION) “active; positive”; (Test System: AMES SALMONELLA TYPHIMURIUM, Strain/Indicator: YG1024, Metabolic Activation: RAT, LIVER, S-9, PCB, Method: PREINCUBATION) “active; positive”; (Test System: AMES SALMONELLA TYPHIMURIUM, Strain/Indicator: YG1025, Metabolic Activation: NONE, Method: PREINCUBATION) “active; positive”. In addition, the mutagenic call by setting is: (Test System: AMES SALMONELLA TYPHIMURIUM, Strain/Indicator: YG1025, Metabolic Activation: RAT, LIVER, S-9, PCB, Method: PREINCUBATION) “active; positive”; (Test System: AMES SALMONELLA TYPHIMURIUM, Strain/Indicator: YG1026, Metabolic Activation: NONE, Method: PREINCUBATION) “active; positive”; (Test System: AMES SALMONELLA TYPHIMURIUM, Strain/Indicator: YG1026, Metabolic Activation: RAT, LIVER, S-9, PCB, Method: PREINCUBATION) “active; positive”; (Test System: AMES SALMONELLA TYPHIMURIUM, Strain/Indicator: YG1029, Metabolic Activation: NONE, Method: PREINCUBATION) “active; positive”; (Test System: AMES SALMONELLA TYPHIMURIUM, Strain/Indicator: YG1029, Metabolic Activation: RAT, LIVER, S-9, PCB, Method: PREINCUBATION) “active; positive”.
For the compound `O=c1[nH]c(=O)c2[nH]cnc2[nH]1`, the mutagenic call (Test System: MOUSE LYMPHOMA, Strain/Indicator: L5178Y (TK+/TK-), Metabolic Activation: NONE, Method: SUSPENSION/PLATE) was “inactive; negative”.
Regarding `O=[N+]([O-])c1ccc2nc3c([N+](=O)[O-])cccc3nc2c1`, the mutagenic call reads like this: under setting [1], “active; positive”; under setting [2], “active; positive”.
Turning to `[N-]=[N+]=Nc1nc2ccccc2[nH]1`, the mutagenic call (Test System: AMES SALMONELLA TYPHIMURIUM, Strain/Indicator: TA98, Metabolic Activation: NONE, Method: STANDARD PLATE) is “active; positive”.
